In assay [1] the target is T1, Tyrosine-protein phosphatase non-receptor type 2 (Homo sapiens, UniProt P17706).
T1 sequence (P17706 whole entry): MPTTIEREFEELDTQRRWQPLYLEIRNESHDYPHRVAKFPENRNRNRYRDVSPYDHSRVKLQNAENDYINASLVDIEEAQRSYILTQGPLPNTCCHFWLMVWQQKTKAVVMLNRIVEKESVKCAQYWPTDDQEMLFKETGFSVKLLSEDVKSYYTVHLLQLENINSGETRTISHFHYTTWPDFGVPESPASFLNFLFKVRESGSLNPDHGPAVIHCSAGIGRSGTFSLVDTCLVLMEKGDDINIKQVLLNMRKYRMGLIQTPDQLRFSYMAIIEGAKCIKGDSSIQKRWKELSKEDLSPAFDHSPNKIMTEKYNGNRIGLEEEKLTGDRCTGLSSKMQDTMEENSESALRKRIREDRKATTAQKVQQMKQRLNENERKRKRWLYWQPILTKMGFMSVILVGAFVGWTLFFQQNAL
As to the kind of experiment: Inhibition of PTPN2 (unknown origin) by Mobility shift assay.

Assay [2] deals with T2, Tyrosine-protein phosphatase non-receptor type 1 (Homo sapiens, UniProt P18031).
T2 sequence (P18031 whole entry): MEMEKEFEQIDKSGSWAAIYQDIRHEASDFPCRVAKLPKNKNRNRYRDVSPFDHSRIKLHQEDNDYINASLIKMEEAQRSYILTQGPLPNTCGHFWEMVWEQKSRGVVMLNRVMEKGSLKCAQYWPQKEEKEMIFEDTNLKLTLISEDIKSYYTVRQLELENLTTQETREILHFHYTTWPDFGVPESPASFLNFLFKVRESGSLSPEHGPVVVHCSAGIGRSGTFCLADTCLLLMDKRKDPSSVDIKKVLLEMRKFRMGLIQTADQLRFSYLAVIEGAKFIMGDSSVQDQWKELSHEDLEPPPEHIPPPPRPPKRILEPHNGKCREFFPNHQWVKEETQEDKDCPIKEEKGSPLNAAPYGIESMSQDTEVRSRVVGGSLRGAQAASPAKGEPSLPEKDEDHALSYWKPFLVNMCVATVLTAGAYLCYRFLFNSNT
In words: Inhibition of PTPN1 (unknown origin) by Mobility shift assay.

Assay [3] deals with B16-F10. In words: Growth inhibition of […]-induced mouse B16-F10 cells at 33 uM relative to control. To be noted: read-out: GI. Type of assay: functional.
The test system of assay [4] is B16-F10. In words: Growth inhibition of mouse B16-F10 cells at 33 uM relative to control. Type of assay: functional. The conditions noted are these: read-out: GI.

Broadly, the IC50 is the concentration at which inhibition is half-maximal.

Consider `CC(C)CCS(=O)(=O)N1CC=C(c2ccc3cc(O)c(N4CC(=O)NS4(=O)=O)c(F)c3c2)C1`, for which the IC50 in assay [1] and in assay [2] was below 1 nM each time. The inhibition of growth at 33 µM in assay [3] was 60%; in assay [4], below 25%.
On to `O=C1CN(c2c(O)cc3ccc(OCCC4CC4(F)F)cc3c2F)S(=O)(=O)N1` (centres undefined), for which the 50% inhibitory concentration (IC50) in assay [1] and in assay [2] was below 1 nM each time. Also, the inhibition of growth at 33 µM is 60% in assay [3] and below 25% in assay [4].
Take `CC(C)(C#N)CCOc1ccc2cc(O)c(N3CC(=O)NS3(=O)=O)c(F)c2c1`: the half-maximal inhibitory concentration (IC50) in assay [1] and in assay [2] was below 1 nM throughout. Besides, the inhibition of growth at 33 µM in assay [3] was 60%; in assay [4] it was below 25%.
Consider `C[C@H](O)CCOc1ccc2cc(O)c(N3CC(=O)NS3(=O)=O)c(F)c2c1`, for which the concentration for half-maximal inhibition (IC50) in assay [1] is below 1 nM; in assay [2] it was 1 nM. The inhibition of growth at 33 µM is above 90% in assay [3] and below 25% in assay [4].
Turning to `CC(C)(C#N)CCOc1cc2c(F)c(N3CC(=O)NS3(=O)=O)c(O)cc2cc1O`, the IC50 in assay [1] and in assay [2] was below 1 nM each time.
In the case of `O=C1CN(c2c(O)cc3ccc(C4CCN(S(=O)(=O)C5CC5)C4)cc3c2F)S(=O)(=O)N1` (centres undefined), the IC50 was below 1 nM in assay [1] and 1 nM in assay [2]. Also, the inhibition of growth at 33 µM in assay [3] is 60%; in assay [4] it was below 25%.
Turning to `O=C1CN(c2c(O)cc3ccc(NCCN4CCC4)cc3c2F)S(=O)(=O)N1`, the IC50 in assay [1] was 1 nM; in assay [2], above 100 nM. In addition, the inhibition of growth at 33 µM was above 90% in assay [3] and below 25% in assay [4].
With `O=C1CN(c2c(O)cc3ccc(-c4cnn(CC5CC5)c4)cc3c2F)S(=O)(=O)N1`, the IC50 in assay [1] and in assay [2] was below 1 nM in each case. The inhibition of growth at 33 µM in assay [3] is 60%; in assay [4], below 25%.
Take `O=C1CN(c2c(O)cc3ccc(OCC4CCCOC4)cc3c2F)S(=O)(=O)N1` (centres undefined): the results for the IC50 in assay [1] and in assay [2] were below 1 nM and above 100 nM, respectively. The inhibition of growth at 33 µM was 60% in assay [3] and below 25% in assay [4].
Consider `O=C1CN(c2c(O)cc3ccc(NCCC4CC4)cc3c2F)S(=O)(=O)N1`, for which the half-inhibitory concentration (IC50) in assay [1] and in assay [2] was 1 nM each time. For the same molecule, the values for the inhibition of growth at 33 µM in assay [3] and in assay [4] were above 90% and below 25%, respectively.
For the molecule `CCS(=O)(=O)N1CC=C(c2ccc3cc(O)c(N4CC(=O)NS4(=O)=O)c(F)c3c2)C1`, the concentration for half-maximal inhibition (IC50) in assay [1] and in assay [2] was below 1 nM in each case. Moreover, the inhibition of growth at 33 µM is above 90% in assay [3] and below 25% in assay [4].
With `CC(C)(O)CCOc1ccc2c(F)c(N3CC(=O)NS3(=O)=O)c(O)cc2c1`, the IC50 is above 10 nM in assay [1] and above 100 nM in assay [2].
